# Data as given in EP3283473B1, “GHRELIN O-ACYL TRANSFERASE INHIBITORS” (Eli Lilly and Company, priority 2015, dated 2016).
# Target: T1, human GOAT (Homo sapiens, UniProt Q96T53)
# T1 construct: His; made in house; host or cells: Sf9 insect cells (baculovirus, pAN51 vector); microsomal membrane preparation
# T1 sequence (Q96T53 1-435): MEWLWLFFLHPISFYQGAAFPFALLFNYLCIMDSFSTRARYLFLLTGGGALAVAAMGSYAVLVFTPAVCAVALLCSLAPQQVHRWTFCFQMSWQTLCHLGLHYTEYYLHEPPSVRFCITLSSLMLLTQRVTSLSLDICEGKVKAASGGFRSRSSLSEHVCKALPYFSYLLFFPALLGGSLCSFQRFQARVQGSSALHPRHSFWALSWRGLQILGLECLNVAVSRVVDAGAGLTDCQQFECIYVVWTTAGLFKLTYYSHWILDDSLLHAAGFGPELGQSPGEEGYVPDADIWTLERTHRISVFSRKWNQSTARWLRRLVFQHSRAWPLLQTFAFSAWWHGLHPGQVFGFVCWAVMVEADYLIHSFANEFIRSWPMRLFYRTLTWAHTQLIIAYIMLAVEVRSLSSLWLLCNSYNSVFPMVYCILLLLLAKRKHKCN
# Assay: In vitro cell free human GOAT enzymatic assay
# Format: biochemical
# Conditions: GOAT-His/sf9 membrane preparation
# Description: Human GOAT gene (Accession number: NM_001100916) is subcloned to pAN51 baculoviral expression vector. Baculovirus stock is prepared following the Bac-to-Bac Protocol provided by the vendor, Invitrogen, California, USA. Five mililiters of human GOAT baculoviral stock are added to 500 mL Sf9 cells in HyQ SFX-Insect™ media (HyClone catalog number SH30278.02) at the density of 1 × 10^6 cells per milliliter in a 2 L Erlenmeyer flask. The flask with human GOAT gene infected Sf9 cells is put on a plate shaker at 120 rpm at 28 °C for 48 hours. After 48 hours incubation, cells are centrifuged at 1,000xg for 10 min at 4 °C. The cell pellets are collected and stored at -80 °C in a freezer until ready for further processing.
# One gram cell pellets are suspended in 9 mL chilled homogenization buffer (50 mM Tris-HCl, 250 mM sucrose, adjusted to pH 7.5 and sterile filtered through 0.2 µm Millipore filter). The cell suspension is transferred to a Dounce glass homogenizer. Cell pellets are homogenized with 40 strokes on ice. The homogenate is centrifuged at 3,000 rpm in a Beckman swing bucket rotor at 4 °C for 10 min to remove unbroken cells. The supernatant is collected and centrifuged at 40,000 xg for 1 hour at 4 °C. The resulting membrane pellet is suspended in the homogenization buffer using a Dounce glass homogenizer and stored at -20 °C in the freezer for the assay. For long term storage of the human GOAT enzyme membrane preparation, the suspended membrane is stored in a -80 °C freezer.
# Prepare test compounds in DMSO to make up a 0.2 mM stock solution. Serially dilute the stock solution in DMSO to obtain a ten-point dilution curve with final compound concentrations ranging from 10 µM to 0.5 nM in a 96-well round-bottom plate. Prepare enzyme and substrate solutions in assay buffer (0.02% TWEEN™-20 in 50 mM Tris, pH 7.5/250 mM sucrose/1 mg/mL BSA/10 mM EDTA). Add diluted compound (1 µL) to each well of row A to N of a corresponding low protein binding 384 well plate. Add human GOAT substrate mix (10 µL), consisting of human desacyl-ghrelin-biotin (CPC Scientific Inc., 6.0 µM final), octanoyl-coenzyme A (CoA) (Sigma, 60 µM final) and an AG specific antibody (WO 2006/091381)(1.0 µg/mL final), to the compounds. Add GOAT-His/sf9 enzyme preparation, that has been prepared in assay buffer (9 µL), to each well of the plate containing substrate and test compounds resulting in a final concentration of 0.01 µg/mL to initiate the reaction. Incubate the mixture for 1 hour at RT on a gently rotating oscillator. Add 4M guanidine hydrochloride (20 µL) to all wells, mix, and incubate for 3 hours to stop the reaction.
# Prepare ELISA plates (STREPTAVIDIN SPECTRAPLATE™ 384, Perkin Elmer) by blocking with 2% Heat-Inactivated FBS in PBS (40 µL) (Invitrogen) blocking buffer for 3 hours. Aspirate the blocking buffer from ELISA plate and add blocking buffer (23 µL) to columns 1-24, rows A-N. Reserve rows O and P for the acylghrelin standard curve. Add the reaction mix (2 µL) to the ELISA plates. Prepare a 10 point standard curve (biotin-labeled octanoyl-ghrelin) by serial 2X dilution in blocking buffer containing 0.2M Guanidine hydrochloride starting at 2.5 pM. Incubate the reaction mixture or biotin-labeled AG standard in the ELISA plate overnight at 4 °C. The following day, wash the plate 3× with wash buffer (0.1% TWEEN™-20/PBS, 100 µL per well in each wash cycle). […] Read plates at 450 nm using an ENVISION® Multilabel plate reader. […]
row,SMILES,IC20 [nM]
1,"Cc1nc(C(F)(F)F)nc(N)c1CCC1CCN(C(=O)[C@H](C)NC(=O)c2nccnc2Cl)CC1 [Example 15, N-[(1S)-2-[4-[2-[4-Amino-6-methyl-2-(trifluoromethyl)pyrimidin-5-yl]ethyl]-1-piperidyl]-1-methyl-2-oxo-ethyl]-3-chloro-pyrazine-2-carboxamide]",55.7
2,"COc1ccccc1C(=O)N[C@@H](C)C(=O)N1CCC(CCc2c(C)nc(C(F)(F)F)nc2N)CC1 [Example 17, N-[(1S)-2-[4-[2-[4-Amino-6-methyl-2-(trifluoromethyl)pyrimidin-5-yl]ethyl]-1-piperidyl]-1-methyl-2-oxo-ethyl]-2-methoxy-benzamide]",420
3,"Cc1nc(C(F)(F)F)nc(N)c1CCC1CCN(C(=O)[C@H](C)NC(=O)CO)CC1 [Example 18, N-[(1S)-2-[4-[2-[4-Amino-6-methyl-2-(trifluoromethyl)pyrimidin-5-yl]ethyl]-1-piperidyl]-1-methyl-2-oxo-ethyl]-2-hydroxy-acetamide]",276
4,"COC(=O)N[C@@H](C)C(=O)N1CCC(CCc2c(C)nc(C(F)(F)F)nc2N)CC1 [Example 20, Methyl N-[(1S)-2-[4-[2-[4-amino-6-methyl-2-(trifluoromethyl)pyrimidin-5-yl]ethyl]-1-pipaidyl]-1-methyl-2-oxo-ethyl]carbamate]",615
